As a reminder, the GI50 is the concentration at which growth is held to half of that of the control. A word on the AC50: it is the concentration at which the activity in the assay is half-maximal. Usually IC50 stands for the concentration needed to halve the response being measured. The EC50 is the concentration at which the effect is half-maximal.

Activity calls are given as the source filed them.

This is an account of results in ChEMBL document CHEMBL1201862, “PubChem BioAssay data set” (2004).

For one series, the system named is SN12K1. In words: cells. The format is functional. The conditions noted are these: Homo sapiens.
A further series has as its system P388. In words: cells. Conditions: Mus musculus. It is filed as functional.
Another series deals with P388/ADR. In words: cells. The format is functional. Conditions: Mus musculus.
A short description of series [1]: inhibitors of PGC1a acetylation in cells, dose response, cell-based, cherry-picked samples (AID 720514).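 Further: potency may reflect raised or lowered acetylation signal.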 It is filed as functional.
In the next series the target is Cytochrome P450 2C9 (Homo sapiens, UniProt P11712).
Sequence of Cytochrome P450 2C9 (P11712 whole entry): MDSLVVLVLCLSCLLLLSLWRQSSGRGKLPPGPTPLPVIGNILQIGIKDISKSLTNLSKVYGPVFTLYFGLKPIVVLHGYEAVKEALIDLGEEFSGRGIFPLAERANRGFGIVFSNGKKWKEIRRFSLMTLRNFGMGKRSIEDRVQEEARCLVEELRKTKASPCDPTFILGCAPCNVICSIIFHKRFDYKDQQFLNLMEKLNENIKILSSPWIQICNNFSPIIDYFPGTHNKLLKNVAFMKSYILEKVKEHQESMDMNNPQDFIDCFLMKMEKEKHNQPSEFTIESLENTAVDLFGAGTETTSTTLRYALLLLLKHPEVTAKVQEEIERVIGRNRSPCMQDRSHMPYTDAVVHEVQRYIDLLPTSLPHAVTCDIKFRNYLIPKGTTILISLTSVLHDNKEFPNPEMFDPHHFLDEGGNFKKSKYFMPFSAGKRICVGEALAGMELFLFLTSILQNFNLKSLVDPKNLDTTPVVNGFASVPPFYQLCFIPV
In the next series the target is Cytochrome P450 3A4 (Homo sapiens, UniProt P08684).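 Further: CYP3A4 tested as one member of a cytochrome P450 panel screen.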
Sequence of Cytochrome P450 3A4 (P08684 whole entry): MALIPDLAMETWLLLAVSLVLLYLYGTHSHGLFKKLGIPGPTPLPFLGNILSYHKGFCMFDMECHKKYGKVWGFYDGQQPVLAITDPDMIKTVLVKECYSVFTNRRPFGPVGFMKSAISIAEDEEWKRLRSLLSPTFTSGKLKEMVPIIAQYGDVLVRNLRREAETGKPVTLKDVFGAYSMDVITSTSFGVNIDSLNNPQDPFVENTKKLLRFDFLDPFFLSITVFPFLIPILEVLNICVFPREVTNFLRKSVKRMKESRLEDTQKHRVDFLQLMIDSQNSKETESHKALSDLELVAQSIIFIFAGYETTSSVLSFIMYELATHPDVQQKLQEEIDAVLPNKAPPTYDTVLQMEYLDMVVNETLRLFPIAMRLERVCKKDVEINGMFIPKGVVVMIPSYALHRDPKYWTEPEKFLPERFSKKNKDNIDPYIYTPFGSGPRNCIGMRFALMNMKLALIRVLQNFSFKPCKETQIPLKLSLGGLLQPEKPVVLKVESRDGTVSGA
The target in another series is Cytochrome P450 2D6 (Homo sapiens, UniProt P10635).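 Further: CYP2D6 member of a cytochrome P450 panel assay.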
Sequence of Cytochrome P450 2D6 (P10635 whole entry): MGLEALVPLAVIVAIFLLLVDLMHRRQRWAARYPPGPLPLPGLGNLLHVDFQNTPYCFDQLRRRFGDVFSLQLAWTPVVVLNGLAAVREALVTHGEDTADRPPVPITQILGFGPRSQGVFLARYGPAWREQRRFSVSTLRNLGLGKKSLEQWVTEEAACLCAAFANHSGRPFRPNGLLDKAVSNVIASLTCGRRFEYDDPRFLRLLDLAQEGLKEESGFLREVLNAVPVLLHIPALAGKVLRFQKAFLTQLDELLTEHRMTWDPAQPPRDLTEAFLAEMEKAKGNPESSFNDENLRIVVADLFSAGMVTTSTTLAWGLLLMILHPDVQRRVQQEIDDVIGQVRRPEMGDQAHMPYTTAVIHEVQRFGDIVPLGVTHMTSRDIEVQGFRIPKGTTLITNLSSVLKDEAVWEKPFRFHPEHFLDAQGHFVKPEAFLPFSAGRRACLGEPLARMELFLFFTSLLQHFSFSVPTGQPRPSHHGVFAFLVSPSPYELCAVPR
A further series concerns the target Cytochrome P450 2C19 (Homo sapiens, UniProt P33261). Briefly: Cytochrome panel assay with activity outcomes. Panel member name: p450-cyp2c19 Compounds with AC50 equal or less than 10 uM are considered active. It is filed as functional.
The nature of series [2]: cytotoxicity in HEK-293T cells, dose response, cytotoxicity control for TCR NF-kB inhibitor project, luminescence, T-cell screen hits (AID 489026).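 Further: cells exposed to compound about 14 hours before the viability readout.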 The format is functional, cell-based.
For a further series, the target named is T1, Cytochrome P450 1A2 (Homo sapiens, UniProt P05177).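 Further: PubChem cytochrome P450 panel assay, CYP1A2 panel member.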
T1 sequence (P05177 whole entry): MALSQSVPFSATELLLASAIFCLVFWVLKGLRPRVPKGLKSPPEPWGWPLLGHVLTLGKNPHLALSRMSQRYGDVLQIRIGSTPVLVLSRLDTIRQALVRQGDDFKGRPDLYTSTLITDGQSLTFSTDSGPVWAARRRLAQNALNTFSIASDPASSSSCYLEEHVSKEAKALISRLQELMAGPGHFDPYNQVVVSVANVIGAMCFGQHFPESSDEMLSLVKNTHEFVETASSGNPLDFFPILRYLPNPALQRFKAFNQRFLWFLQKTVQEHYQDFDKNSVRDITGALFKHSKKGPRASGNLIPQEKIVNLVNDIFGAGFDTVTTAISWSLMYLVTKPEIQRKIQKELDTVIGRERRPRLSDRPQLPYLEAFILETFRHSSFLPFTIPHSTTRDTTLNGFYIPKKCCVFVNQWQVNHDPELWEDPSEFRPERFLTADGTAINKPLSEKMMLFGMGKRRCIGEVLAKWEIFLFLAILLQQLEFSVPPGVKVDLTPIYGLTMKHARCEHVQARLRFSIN

Series [3] concerns the target T2, High affinity choline transporter 1 (Homo sapiens, UniProt Q9GZV3).
T2 sequence (Q9GZV3 whole entry): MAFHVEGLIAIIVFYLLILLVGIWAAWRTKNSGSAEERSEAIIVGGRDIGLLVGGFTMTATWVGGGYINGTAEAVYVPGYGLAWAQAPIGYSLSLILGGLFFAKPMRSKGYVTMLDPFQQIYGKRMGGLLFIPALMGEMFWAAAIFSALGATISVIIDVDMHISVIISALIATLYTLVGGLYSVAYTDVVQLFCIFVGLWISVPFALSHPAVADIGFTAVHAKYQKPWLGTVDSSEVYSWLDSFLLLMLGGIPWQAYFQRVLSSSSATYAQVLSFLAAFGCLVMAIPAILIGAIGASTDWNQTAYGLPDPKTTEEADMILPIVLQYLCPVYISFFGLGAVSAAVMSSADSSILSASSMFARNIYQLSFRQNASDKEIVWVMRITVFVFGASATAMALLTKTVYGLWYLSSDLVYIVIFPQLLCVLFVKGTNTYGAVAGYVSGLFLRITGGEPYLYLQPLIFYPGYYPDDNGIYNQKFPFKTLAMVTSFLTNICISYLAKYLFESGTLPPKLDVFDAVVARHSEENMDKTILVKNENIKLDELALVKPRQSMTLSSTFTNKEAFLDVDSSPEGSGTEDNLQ
In words: CHT inhibitors, dose response, cell-based, 5-point CRC, membrane potential dye (AID 504840). The format is functional.

The target in series [4] is T3, Replicative DNA helicase DnaB (Mycobacterium tuberculosis, UniProt P9WMR3).
T3 sequence (P9WMR3 whole entry): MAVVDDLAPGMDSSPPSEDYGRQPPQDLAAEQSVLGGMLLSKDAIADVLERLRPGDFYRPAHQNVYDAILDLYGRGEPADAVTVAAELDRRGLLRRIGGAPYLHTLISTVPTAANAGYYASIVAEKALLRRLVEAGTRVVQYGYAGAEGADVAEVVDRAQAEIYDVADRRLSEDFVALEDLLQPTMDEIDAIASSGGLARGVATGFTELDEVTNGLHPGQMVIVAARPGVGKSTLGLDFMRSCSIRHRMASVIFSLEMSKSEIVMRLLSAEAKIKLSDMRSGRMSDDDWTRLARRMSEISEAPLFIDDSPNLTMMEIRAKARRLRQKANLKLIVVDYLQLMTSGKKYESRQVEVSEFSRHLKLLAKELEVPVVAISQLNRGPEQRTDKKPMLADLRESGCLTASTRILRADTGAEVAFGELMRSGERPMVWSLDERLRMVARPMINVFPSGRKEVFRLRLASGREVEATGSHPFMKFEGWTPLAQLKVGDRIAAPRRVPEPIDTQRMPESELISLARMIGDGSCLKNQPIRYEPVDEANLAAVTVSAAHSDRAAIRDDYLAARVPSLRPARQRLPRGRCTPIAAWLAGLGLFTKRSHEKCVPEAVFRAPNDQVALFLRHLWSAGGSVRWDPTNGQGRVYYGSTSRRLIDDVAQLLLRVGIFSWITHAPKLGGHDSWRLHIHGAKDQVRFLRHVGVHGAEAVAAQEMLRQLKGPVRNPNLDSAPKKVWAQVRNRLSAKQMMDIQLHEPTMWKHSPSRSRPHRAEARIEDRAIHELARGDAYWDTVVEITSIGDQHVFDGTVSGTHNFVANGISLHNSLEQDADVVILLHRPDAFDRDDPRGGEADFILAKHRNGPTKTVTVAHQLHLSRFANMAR
Briefly: DnaB intein splicing inhibitors, dose response, biochemical, cell-free fluorescence (AID 449749). It is filed as functional.

A further series deals with T4, Protein RecA (Mycobacterium tuberculosis, UniProt P9WHJ3).
T4 sequence (P9WHJ3 whole entry): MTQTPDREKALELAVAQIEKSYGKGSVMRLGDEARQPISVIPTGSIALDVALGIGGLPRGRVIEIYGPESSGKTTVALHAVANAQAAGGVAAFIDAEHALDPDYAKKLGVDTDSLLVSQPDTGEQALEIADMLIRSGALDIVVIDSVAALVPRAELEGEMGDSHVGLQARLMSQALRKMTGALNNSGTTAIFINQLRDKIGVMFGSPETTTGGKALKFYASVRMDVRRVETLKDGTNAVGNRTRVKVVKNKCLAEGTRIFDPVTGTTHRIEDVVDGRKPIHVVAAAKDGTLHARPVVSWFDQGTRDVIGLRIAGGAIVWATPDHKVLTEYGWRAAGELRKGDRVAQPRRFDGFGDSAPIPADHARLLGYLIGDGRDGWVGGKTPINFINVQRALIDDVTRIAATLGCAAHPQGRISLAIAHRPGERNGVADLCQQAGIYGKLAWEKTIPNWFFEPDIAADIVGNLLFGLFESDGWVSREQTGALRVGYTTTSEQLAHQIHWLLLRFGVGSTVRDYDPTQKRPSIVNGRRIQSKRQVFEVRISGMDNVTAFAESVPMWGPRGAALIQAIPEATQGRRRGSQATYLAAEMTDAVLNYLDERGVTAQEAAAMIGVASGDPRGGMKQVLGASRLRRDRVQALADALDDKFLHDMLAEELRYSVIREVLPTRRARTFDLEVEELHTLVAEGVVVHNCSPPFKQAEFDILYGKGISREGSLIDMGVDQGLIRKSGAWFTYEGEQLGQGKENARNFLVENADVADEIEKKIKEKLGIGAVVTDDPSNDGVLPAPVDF
In words: Fluorescence Cell-Free Homogeneous Dose Retest to Identify Inhibitors of RecA-Intein Splicing Activity. [Related pubchem assays (depositor defined):AID2097, AID2223, AID489010, AID492950]. It is filed as functional.

Series [5] is described as follows: growth suppression of PTEN-null colon cells, dose response, cell-based, HCT116 PTEN knockout (AID 1047).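 Further: HCT116 colon tumor cells with PTEN knocked out; cells exposed to compound for 60 hours before readout; potency for loss of cell viability measured by luminescence.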 The format is functional.
Series [6] can be described thus: growth suppression of beta-catenin-knockout colon cells, dose response, cell-based, HCT116, human colon tumor (AID 1045).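 Further: HCT116 colon tumor cells with beta catenin knocked out; cells exposed to compound for 60 hours.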 The format is functional.
Series [7] is described as follows: inhibitors of clade B AD8 Env fusion, dose response, cell-based, cherry-pick (AID 652062).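 Further: luciferase signal from cell-cell fusion driven by HIV-1 clade B AD8 Env; potency is for inhibitors of fusion seen as a drop in luminescence.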 It is filed as functional.
Series [8] is described as follows: ZM109 Env clade C HIV-1 fusion inhibitors, dose response, HeLa effector, CEM target cells, luciferase, cherry-pick (AID 652058). The format is functional, cell-based.
Series [9] in a line: inhibitors of HIV Env-driven cell fusion, dose response, cherry-pick (AID 652057). The format is functional, cell-based.

Sequence of Cytochrome P450 2C19 (P33261 whole entry): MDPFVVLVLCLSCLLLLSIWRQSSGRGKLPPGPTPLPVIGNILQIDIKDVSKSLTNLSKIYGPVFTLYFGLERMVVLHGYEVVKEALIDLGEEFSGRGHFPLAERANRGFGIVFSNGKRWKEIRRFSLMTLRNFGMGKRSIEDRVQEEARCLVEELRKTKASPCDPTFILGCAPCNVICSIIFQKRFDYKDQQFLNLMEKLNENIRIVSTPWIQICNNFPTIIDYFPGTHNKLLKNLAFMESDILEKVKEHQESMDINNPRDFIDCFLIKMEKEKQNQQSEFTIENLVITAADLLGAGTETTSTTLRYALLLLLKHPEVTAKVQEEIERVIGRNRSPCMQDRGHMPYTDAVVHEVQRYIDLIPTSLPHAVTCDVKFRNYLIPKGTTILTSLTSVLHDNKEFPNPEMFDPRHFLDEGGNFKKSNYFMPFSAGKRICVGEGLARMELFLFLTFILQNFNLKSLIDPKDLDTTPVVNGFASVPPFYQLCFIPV

In the case of `O=NN(CCF)C(=O)NC1CCSCC1`, the GI50 with SN12K1, in the series with P388 and in the series with P388/ADR was > 100 µM (inactive) each time.

With `Cc1ccc(C2CC2c2nnc(S)n2-c2ccc(Cl)cc2)cc1` (stereo unspecified), the half-maximal activity concentration (AC50) in series [1] is 37.2 µM (active).

`C[C@@H](COc1ccc(/C=C\c2ccccc2)cc1)[N+](C)(C)C`: the concentration at half-maximal activity (AC50) entry is “inconclusive” at Cytochrome P450 2C9, 10 µM (inconclusive) on Cytochrome P450 3A4, 3.16 µM (inconclusive) at Cytochrome P450 2D6 and “inconclusive” on Cytochrome P450 2C19.

As for `COCCNC(=O)c1cc(-c2cccc(OC)c2)on1`, the AC50 entry is “inconclusive” at Cytochrome P450 2C9 and 28.2 µM (inconclusive) on Cytochrome P450 2C19 (read-out: AC50).

As for `CCOc1cc(C#N)c(NC(=O)c2cccnc2)cc1OCC`, in series [2], the IC50 is > 80 µM (inactive). Besides, the AC50 result at Cytochrome P450 2C9 is recorded as “inconclusive”.

With `COc1ccc(C2=NOC(C(=O)NCc3ccco3)C2)cc1OC` (stereo unspecified), the half-maximal activity concentration (AC50) result on Cytochrome P450 2C9 is “inconclusive”; at Cytochrome P450 1A2, 39.8 µM (inconclusive); on Cytochrome P450 2C19 it was “inconclusive”.

In the case of `O=C(NNC(=S)Nc1ccccc1)c1cc(Br)ccc1Cl`, the IC50 in series [3] is 12.6 µM (active).

With `CCc1ccccc1NC(=O)c1nnn(CC(=O)Nc2ccccc2C)c1N`, the AC50 result was “inconclusive” on Cytochrome P450 2C9 and 25.1 µM (inconclusive) at Cytochrome P450 3A4.

As for `O=C(O)/C(=C\c1ccccc1OC(F)F)Sc1nnc(-c2ccc(F)cc2)o1`, the IC50 in [3] is 19.1 µM (active).

Turning to `Cc1ccc2c(c1)N(CCC(=O)N1CCC3(CC1)OCCO3)C(=O)C(C)O2` (stereo unspecified), the concentration at half-maximal activity (AC50) result on Cytochrome P450 2C9 was “inconclusive”; at Cytochrome P450 1A2, 0.00631 µM (inconclusive).

With `Cc1ccc(Cn2ncc(Cl)c(Cl)c2=O)cc1`, the results for the AC50 in series [4] and in series [1] were 14.3 µM (active) and 8.4 µM (active), respectively. The EC50 was 7.65 µM (active) at Protein RecA, 10.5 µM (active) in [5] and 7.68 µM (active) in [6].

On to `COc1nc(O)c(N)c(NC2OC(CO)C(O)C(O)C2O)n1` (stereo unspecified), for which the GI50 with SN12K1 was > 100 µM (inactive); in the series with P388 it was 13.3 µM (inactive); with P388/ADR, 38.5 µM (inactive).

With `CCCCSCC(NC(=O)/C=C/c1c(C)[nH]c(=O)[nH]c1=O)C(=O)OC` (stereo unspecified), the GI50 with SN12K1 was 17.6 µM (inactive); in the series with P388 it was 55.2 µM (inactive); in the series on P388/ADR, 141 µM (inactive).

As for `COc1cccc2c1C(=O)c1c(O)c3c(c(O)c1C2=O)C[C@@](O)(C(=O)CO)C[C@@H]3OC1CC(N)CC(C)O1` (stereo partly specified), the GI50 with SN12K1 is 0.02 µM (active); in the series with P388, 0.0349 µM (active); in the series with P388/ADR, 0.367 µM (active).

For `CC1(C)CC23C4COC(=O)C2CCC1C3CC4=O` (stereo unspecified), the GI50 with SN12K1 is 14.4 µM (inactive); in the series on P388 it was 2.9 µM (inactive); in the series with P388/ADR it was 1.5 µM (inactive).

`COc1cc(/C=C/C(=O)Oc2ccc(NC(C)=O)cc2)ccc1C(=O)OCc1ccccc1`: the GI50 was 36.5 µM (inactive) in the series on SN12K1, 2.28 µM (inactive) with P388 and 0.69 µM (active) in the series with P388/ADR.

Take `O=Cc1c(Br)[nH]c2ccccc12`: the GI50 in the series with SN12K1 was > 100 µM (inactive); with P388, > 55.5 µM (inactive); in the series on P388/ADR, 68.9 µM (inactive).

For `O=C(C[C@H]1C[C@@H]2c3cc(NS(=O)(=O)c4ccc(F)cc4)ccc3O[C@@H]2[C@H](CO)O1)NCCc1ccccc1`, the values for the AC50 in [7], in [8] and in [9] were 8.44 µM (active), 1.2 µM (active) and 0.666 µM (active), respectively.

Turning to `COc1ccc(NC(=O)Nc2ccc3c(c2)CC(=O)N([C@H](C)CO)C[C@H](C)[C@H](CN(C)S(=O)(=O)c2ccccc2)O3)cc1`, the AC50 is 0.981 µM (active) in [7], < 0.26 µM (active) in series [8] and < 0.26 µM (active) in series [9].

In the case of `C[C@H]1CCCCO[C@H](CN(C)Cc2ccc3c(c2)OCO3)[C@@H](C)CN([C@@H](C)CO)C(=O)c2cc(NC(=O)Nc3ccc(C(F)(F)F)cc3)ccc2O1`, in series [1], the AC50 is 12.1 µM (active).
